{
  "source": "patent US11266642B2",
  "about": "“Small molecule inhibitors of HLA-DR3 binding for treating autoimmune thyroiditis” (ICAHN SCHOOL OF MEDICINE AT MOUNT SINAI, priority 2015, dated 2022)",
  "key": {"[1]": {"tested_on": "Interferon (IFN gamma)", "experiment": "Cytokine production by immunized mice splenocytes (Milliplex/Luminex)", "assay_type": "cell-based", "conditions": "Mus musculus, Splenocyte, 1 μM compound, 48 hours", "experimental": "Immunized mice splenocytes were incubated with 1 μM compound Ia together with human thryroglobulin (40 μg/mL) or Tg.2098 (20 μg/mL) to assess the inhibition of cytokines production by compound Ia. […] Milliplex mouse cytokines/chemokine magnetic panel (Catalog no. MCYTOMAG-70K, EMD Millipore Corporation, Billerica, Mass.) was used to assay the cytokines. Splenocytes were plated at 2×10^6 cells per well in 500 uL of medium (RPMI/10% FBS). Supernatants were collected 48 hours after stimulation with hTg or peptides and stored at −80° C. until the assay was performed. To begin the assay, the 96-well plate supplied in the kit was washed with the wash buffer supplied and the plate was shaken for 10 min at room temperature. Standards and quality controls were added, followed by the samples. The pre-mixed beads (IFN gamma, IL-2, IL-4, IL-10) were sonicated and vortexed, and then added to the wells. After shaking the plate overnight at 4° C., the plate was washed twice with wash buffer. Detection antibodies were added for 1 h at room temperature, and Streptavidin-Phycoerythrin was added for 30 min at room temperature. The plate was washed twice and sheath fluid was added to resuspend the beads for 5 min before reading in Luminex 200 with xPONENT software (Luminex, Austin, Tex.) […]"}, "[2]": {"tested_on": "T-cell proliferative responses to hTg", "experiment": "In vivo IP administration in hTg-immunized NOD-DR3 mice (EAT), T-cell proliferation CFSE assay", "design": "species or system mouse", "conditions": "IP 125 μg on days -2, -1, 5, 6; sacrifice day 21; vehicle 2.3 ± 0.5; p=0.0432", "from_the_text": "(§1) Mice transgenic for DRB1*0301 were originally generated by G. J Hämmerling and co-workers as previously described [Strauss et al. Immunogenetics 40, 104-108 (1994)]. Briefly, the DR3 (DRA1*0101/DRB1*0301) transgenes were inserted into (C57BL/6×DBA/2) F1 embryos and the progeny were back-crossed to B10.Q mice. The DR3 mice were crossed with I-Aβ knockouts (C57BL/6×129) to obtain mice lacking murine MHC class II and expressing human DR3. The transgenic mouse line was maintained by intercrossing. The background non-MHC genes in the DR3 transgenic line was 50% C57BL/10 genes and 50% contribution from CBA, C57BL/6, and 129 genes. These mice were then back-crossed into NOD background to produce the NOD-DR3 mice [Flynn et al. J Autoimmun, 17, 7-15 (2001)]. The transgene was confirmed to be HLA-DRβ1-Arg74 positive. […]\nSeven female NOD-DR3 mice (6-10 weeks old) were injected IP with […] Compound Ia on day (−2) and day (−1), followed by SQ immunization of human thyroglobulin (hTg) mixed with CFA on day 0. […] The stimulation index was calculated by using the formula described above: Stimulation index=[% proliferating lymphocytes (hTg, peptide or mitogen-treated)]/[% proliferating lymphocytes (medium-treated)]."}, "[3]": {"tested_on": "T-cell proliferative responses to hTg or Tg.2098", "experiment": "In vivo PO administration in hTg-immunized NOD-DR3 mice (EAT), T-cell proliferation CFSE assay", "design": "species or system mouse", "conditions": "PO gavage 250 μg on days -2, -1, 5, 6, sacrifice day 21", "from_the_text": "as §1, with “positive. Mice were bred in a pathogen-free facility (Icahn School of Medicine at Mount Sinai, New York, N.Y.), and expression of HLA-DR3 was tested by PCR using DR3-specific primers: forward primer 5′ CGCTTCGACAGCGAC 3′ (SEQ ID NO:4) and reverse primer 5′ GACAAATCCACACTCCAC 3′ (SEQ ID NO:5).” for “positive.”\nThree female NOD-DR3 mice (6 to 10 weeks old) were fed with 250 μg of Compound Ia PO using gavage on day (−2) and day (−1), followed by SQ immunization of hTg mixed with CFA on day 0. […] Stimulation index was calculated as before."}},
  "note": "Read-outs that look alike come from different tables or passages of the source.",
  "data": [
    {"smiles": "COc1ccc2cc1Oc1ccc(cc1)C[C@H]1c3c(cc4c(c3Oc3cc5c(cc3OC)CCN(C)[C@@H]5C2)OCO4)CCN1C", "note": "[Compound Ia, cepharanthine]", "values": [
      {"measurement": "inhibition at 1 µM", "setting": "[1]; Tg.2098 20 μg/mL, p<0.0001, read-out: Interferon inhibition, Tg.2098 stimulation", "value": 48.8, "unit": "%"},
      {"measurement": "inhibition at 1 µM", "setting": "[1]; hTg 40 μg/mL, p=0.002, read-out: Interferon inhibition, hTg stimulation", "value": 38.7, "unit": "%"},
      {"measurement": "Stimulation index, T-cell stimulation in response to hTg", "setting": "[2]", "value": "1.3 ± 0.2"},
      {"measurement": "Stimulation index, T-cell stimulation in response to hTg", "setting": "[3]; vehicle 1.8 ± 0.2, p=0.0285", "value": "1.0 ± 0.2"},
      {"measurement": "Stimulation index, T-cell stimulation in response to Tg.2098", "setting": "[3]; vehicle 1.9 ± 0.3, p=0.0147", "value": "0.9 ± 0.1"}
    ]}
  ]
}
